Experimental data as given in the supplement of paper PMC11061612.

Columns and labels:
Assay in all cases: combination Emax (second highest fraction inhibited in the dose matrix, 72 h); higher = more inhibition; extreme values may be limits of the assay
[1] = tested on: TE-5 (Esophageal Squamous Cell Carcinoma)
Procedure, shortened: (§1)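 Cell lines in DMEM/F12 or RPMI with 10% FBS were plated in 1536-well plates, held 24 hours at 37°C, 5% CO2, then given two-drug dose matrices for 72 hours (DMSO typically 0.2%). Viability was read by CellTiter-Glo 2.0 luminescence and scaled as inhibition from 0 (vehicle wells) to 1 (blank wells). Combination Emax is the second-highest inhibition in the matrix; Bliss excess is observed combination effect minus expected EA + EB − EA·EB, EA and EB being single-agent effects.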

[2] = tested on: J82 (Bladder Carcinoma)
Procedure, shortened: as §1

[3] = tested on: COR-L23 (Non-Small Cell Lung Carcinoma)
Procedure, shortened: as §1

[4] = tested on: DOV13 (Ovarian Carcinoma)
Procedure, shortened: as §1

[5] = tested on: DB (B-Cell Non-Hodgkin's Lymphoma)
Procedure, shortened: as §1

[6] = tested on: NCI-H2595 (Mesothelioma)
Procedure, shortened: as §1

[7] = tested on: SK-N-FI (Neuroblastoma)
Procedure, shortened: as §1

[8] = tested on: DSH1 (Bladder Carcinoma)
Procedure, shortened: as §1

[9] = tested on: KARPAS-1106P (B-Cell Non-Hodgkin's Lymphoma)
Procedure, shortened: as §1

[10] = tested on: SW1990 (Pancreatic Carcinoma)
Procedure, shortened: as §1

[11] = tested on: EM-2 (Chronic Myelogenous Leukemia)
Procedure, shortened: as §1

[12] = tested on: LS-513 (Colorectal Carcinoma)
Procedure, shortened: as §1

[13] = tested on: MDA-MB-157 (Breast Carcinoma)
Procedure, shortened: as §1

[14] = tested on: COR-L95 (Small Cell Lung Carcinoma)
Procedure, shortened: as §1

[15] = tested on: MFH-ino (Other Solid Carcinomas)
Procedure, shortened: as §1

[16] = tested on: CTV-1 (T-Lymphoblastic Leukemia)
Procedure, shortened: as §1

[17] = tested on: OCI-AML2 (Acute Myeloid Leukemia)
Procedure, shortened: as §1

[18] = tested on: HCC2157 (Breast Carcinoma)
Procedure, shortened: as §1

[19] = tested on: TGBC24TKB (Biliary Tract Carcinoma)
Procedure, shortened: as §1

[20] = tested on: CAL-78 (Chondrosarcoma)
Procedure, shortened: as §1

Compound	combination Emax [1]	combination Emax [2]	combination Emax [3]	combination Emax [4]	combination Emax [5]	combination Emax [6]	combination Emax [7]	combination Emax [8]	combination Emax [9]	combination Emax [10]	combination Emax [11]	combination Emax [12]	combination Emax [13]	combination Emax [14]	combination Emax [15]	combination Emax [16]	combination Emax [17]	combination Emax [18]	combination Emax [19]	combination Emax [20]
CC1(C)CCC(CN2CCN(c3ccc(C(=O)NS(=O)(=O)c4ccc(NCC5CCOCC5)c([N+](=O)[O-])c4)c(Oc4cnc5[nH]ccc5c4)c3)CC2)=C(c2ccc(Cl)cc2)C1 [Venetoclax] + C1CN(CCC1(C(=O)N[C@@H](CCO)C2=CC=C(C=C2)Cl)N)C3=NC=NC4=C3C=CN4 [Capivasertib] (first compound max 1 µM, 7x7, partner max 3 µM)	0.255	0.259	0.245	0.353	0.941	0.235	0.302	0.416	0.492	0.576	0.338	0.335	0.535	0.719	0.258	0.359	1	0.903	0.253	0.263
CN(C)CCCOc1ccc(-c2ccc3ncc4c(c3c2)n(C2CCOCC2)c(=O)n4C)cn1 [AZD0156] + C[C@@H]1COCCN1C2=NC(=NC(=C2)C3(CC3)[S@](=N)(=O)C)C4=C5C=CNC5=NC=C4 [AZD6738] (first compound max 1 µM, 7x7, partner max 10 µM)	0.481	0.396	0.687	0.888	0.628	0.12	0.793	0.823	0.752	0.552	0.949	0.822	0.914	0.525	0.403	0.829	0.975	0.955	0.796	0.41
C=CCn1c(=O)c2cnc(Nc3ccc(N4CCN(C)CC4)cc3)nc2n1-c1cccc(C(C)(C)O)n1 [AZD1775] + C[C@@H]1COCCN1C2=NC(=NC(=C2)C3(CC3)[S@](=N)(=O)C)C4=C5C=CNC5=NC=C4 [AZD6738] (first compound max 1 µM, partner max 10 µM)	0.577	0.414	0.595	0.928	0.934	0.266	0.857	0.862	0.886	0.623	0.977	0.87	0.947	0.737	0.536	0.993	1	0.983	0.832	0.839
Cc1c2c(nn1C)CSCc1cc(n(C)n1)CSc1cc(c3ccccc3c1)OCCCc1c(C(=O)O)n(C)c3c-2c(Cl)ccc13 [AZD5991] + CCN(CCO)CCCOc1ccc2c(Nc3cc(CC(=O)Nc4cccc(F)c4)[nH]n3)ncnc2c1 [AZD2811] (first compound max 1 µM, 7x7, partner max 1 µM)	0.261	0.192	0.201	0.603	0.987	0.324	0.335	0.839	0.955	0.298	0.906	0.623	0.846	0.449	0.251	0.278	1	0.985	0.543	0.868
C[C@@H](c1ccc2nccn2c1)n1nnc2ncc(-c3cnn(C)c3)nc21 [Savolitinib] + Cc1c2c(nn1C)CSCc1cc(n(C)n1)CSc1cc(c3ccccc3c1)OCCCc1c(C(=O)O)n(C)c3c-2c(Cl)ccc13 [AZD5991] (first compound max 1 µM, 7x7, partner max 1 µM)	0.147	0.205	0.142	0.153	0.986	0.302	0.24	0.678	0.734	0.127	0.364	0.155	0.639	0.163	0.207	0.113	0.88	0.978	0.182	0.697
NC1(C(=O)N[C@@H](CCO)c2ccc(Cl)cc2)CCN(c2ncnc3[nH]ccc23)CC1 [Capivasertib] + COc1nnc2ccc(N3CCC(c4ccc(OCCN5CCN(C)C(=O)[C@H]5C)cc4)CC3)nn12 [AZD5153] (first compound max 10 µM, 7x7, partner max 1 µM)	0.609	0.632	0.552	0.535	0.669	0.301	0.579	0.941	0.979	0.208	0.958	0.641	0.389	0.399	0.513	1	1	1	0.789	0.489
Cc1c2c(nn1C)CSCc1cc(n(C)n1)CSc1cc(c3ccccc3c1)OCCCc1c(C(=O)O)n(C)c3c-2c(Cl)ccc13 [AZD5991] + CC1(C)CCC(CN2CCN(c3ccc(C(=O)NS(=O)(=O)c4ccc(NCC5CCOCC5)c([N+](=O)[O-])c4)c(Oc4cnc5[nH]ccc5c4)c3)CC2)=C(c2ccc(Cl)cc2)C1 [Venetoclax] (first compound max 1 µM, 7x7, partner max 1 µM)	0.525	0.164	0.164	0.221	1	0.267	0.65	0.964	0.935	0.164	0.975	0.18	0.862	0.914	0.182	0.13	1	0.985	0.304	0.796
COc1cccc(OCCCN)c1-c1cc(Nc2cnc(C#N)cn2)n[nH]1 [Prexasertib] + CN(C)CCCOc1ccc(-c2ccc3ncc4c(c3c2)n(C2CCOCC2)c(=O)n4C)cn1 [AZD0156] (first compound max 1 µM, 7x7, partner max 1 µM)	0.543	0.407	0.683	0.927	0.771	0.1	0.908	0.82	0.919	0.705	0.986	0.824	0.935	0.644	0.394	0.988	1	0.976	0.863	0.525
Cn1cnc2c(F)c(Nc3ccc(Br)cc3Cl)c(C(=O)NOCCO)cc21 [Selumetinib] + C[C@@H]1COCCN1C2=NC(=NC(=C2)C3(CC3)[S@](=N)(=O)C)C4=C5C=CNC5=NC=C4 [AZD6738] (first compound max 10 µM, 7x7, partner max 10 µM)	0.464	0.482	0.615	0.763	0.274	0.165	0.746	0.761	0.648	0.502	0.954	0.897	0.92	0.535	0.421	0.906	1	0.856	0.703	0.42
NC1(C(=O)N[C@@H](CCO)c2ccc(Cl)cc2)CCN(c2ncnc3[nH]ccc23)CC1 [Capivasertib] + Cn1cnc2c(F)c(Nc3ccc(Br)cc3Cl)c(C(=O)NOCCO)cc21 [Selumetinib] (first compound max 10 µM, 7x7, partner max 10 µM)	0.56	0.413	0.609	0.371	0.422	0.29	0.614	0.954	0.586	0.368	0.771	0.867	0.292	0.22	0.556	0.852	1	1	0.556	0.452
CN(CCO)CC[C@H](CSc1ccccc1)Nc1ccc(S(=O)(=O)NC(=O)c2ccc(N3CCC([C@@H](O)c4ccccc4-c4ccc(Cl)cc4)CC3)cc2)cc1S(=O)(=O)C(F)(F)F [AZD4320] + C1CN(CCC1(C(=O)N[C@@H](CCO)C2=CC=C(C=C2)Cl)N)C3=NC=NC4=C3C=CN4 [Capivasertib] (first compound max 1 µM, 7x7, partner max 3 µM)	0.321	0.164	0.258	0.812	0.899	0.151	0.228	0.686	0.16	0.0829	0.98	0.324	0.0801	1	0.182	0.404	1	0.991	0.687	0.524
CC1(C)CCC(CN2CCN(c3ccc(C(=O)NS(=O)(=O)c4ccc(NCC5CCOCC5)c([N+](=O)[O-])c4)c(Oc4cnc5[nH]ccc5c4)c3)CC2)=C(c2ccc(Cl)cc2)C1 [Venetoclax] + Cc1cc2ncnn2cc1Nc1ncc2c(n1)n(C1CCOCC1)c(=O)n2C [AZD7648] (first compound max 1 µM, 7x7, partner max 10 µM)	0.284	0.131	0.164	0.476	0.957	0.228	0.262	0.187	0.458	0.572	0.254	0.192	0.571	0.607	0.318	0.362	1	0.628	0.332	0.234
